The record followed here is patent US9221814B2, “Heterocyclic guanidine F1F0-atpase inhibitors and therapeutic uses thereof” (Lycera Corporation, priority 2012, dated 2015).

One test addresses T1, F1F0-ATPase (Bos taurus, UniProt P13621).
T1 construct: from tissue
Description: Inhibition of F1F0-ATPase activity in synthesizing ATP (ATP synthesis inhibition). It is filed as biochemical. To be noted: detection limit IC50=16 μM, read-out: ATP Syn IC50. The protocol:
(§1) Exemplary compounds described in above Examples were tested for activity against F1F0-ATPase by measuring the ability of the compounds to inhibit ATP synthesis. In addition, the compounds were assessed for cytotoxicity in Ramos cells. Inhibition of F1F0-ATPase activity in synthesizing ATP and cytotoxicity in Ramos cells were measured according to the procedures described in K. M. Johnson et al. Chemistry & Biology 2005, 12, 485-496.

The next test deals with Ramos cells. The test can be described thus: Cytotoxicity in Ramos cells. It is filed as cell-based. The settings on record: detection limit EC50=16 μM, read-out: Ramos Cell EC50. The protocol:
as §1

The structures appear in SMILES notation. Like-named read-outs stand apart in the source and are kept apart here.

On to `Cn1cc(C(=O)/N=C(/Nc2cc(-c3ccc(O)cc3F)n[nH]2)Nc2ccccc2F)c(C(F)(F)F)n1` [Compound 1, N-(((3-(2-Fluoro-4-hydroxyphenyl)-1H-pyrazol-5-yl)amino)((2-fluorophenyl)amino)methylene)-1-methyl-3-(trifluoromethyl)-1H-pyrazole-4-carboxamide], for which the IC50 on F1F0-ATPase lay in the range of 5 to 16 µM. Besides, in the test with Ramos cells (Homo sapiens), the EC50 was less than 5 µM.

For the compound `CCOC(=O)NC1CCCC(N/C(=N\C(=O)c2cc(C)oc2C(F)(F)F)Nc2cccc(F)c2)C1` (stereo not shown) [Compound 2, Ethyl (3-(3-(3-fluorophenyl)-2-(5-methyl-2-(trifluoromethyl)furan-3-carbonyl)guanidino)cyclohexyl)carbamate], at F1F0-ATPase, the IC50 was more than 16 µM. Further, the EC50 in the test with Ramos cells (Homo sapiens) fell in the range of 5 to 16 µM.

Regarding `CC(C)CN/C(=N/C(=O)c1cn(C)nc1C(F)(F)F)Nc1cc(-c2ccc(O)c(F)c2)n[nH]1` [Compound 3, N-(((3-(3-Fluoro-4-hydroxyphenyl)-1H-pyrazol-5-yl)amino)(isobutylamino)methylene)-1-methyl-3-(trifluoromethyl)-1H-pyrazole-4-carboxamide], the IC50 on F1F0-ATPase lay in the range of 5 to 16 µM. Besides, the EC50 in the test on Ramos cells (Homo sapiens) was more than 16 µM.

Turning to `CC(C)CN/C(=N/C(=O)c1cn(C)nc1C(F)(F)F)Nc1cc(-c2ccc(O)cc2F)n[nH]1` [Compound 4, N-(((3-(2-Fluoro-4-hydroxyphenyl)-1H-pyrazol-5-yl)amino)(isobutylamino)methylene)-1-methyl-3-(trifluoromethyl)-1H-pyrazole-4-carboxamide], the IC50 on F1F0-ATPase is more than 16 µM. Also, the EC50 with Ramos cells (Homo sapiens) was more than 16 µM.

In the case of `Cn1cc(C(=O)/N=C(\Nc2cc(-c3ccc(O)c(F)c3)n[nH]2)Nc2ccc(F)c(O)c2F)c(C(F)(F)F)n1` [Compound 5, N-(((2,4-Difluoro-3-hydroxyphenyl)amino)((3-(3-fluoro-4-hydroxyphenyl)-1H-pyrazol-5-yl)amino)methylene)-1-methyl-3-(trifluoromethyl)-1H-pyrazole-4-carboxamide], the IC50 on F1F0-ATPase is 5 to 16 µM. Further, the EC50 with Ramos cells (Homo sapiens) was 5 to 16 µM.

In the case of `CCOCCCN/C(=N\C(=O)c1cnoc1C)Nc1cc(-c2cc(F)cc(F)c2)n[nH]1` [Compound A-1], the 50% inhibitory concentration (IC50) at F1F0-ATPase is more than 16 µM. Besides, the EC50 with Ramos cells is more than 16 µM.

As to `Cc1nn(C)cc1C(=O)/N=C(\Nc1cc(F)cc(Cl)c1)Nc1cc(-c2ccc(O)cc2F)n[nH]1` [Compound A-2], the IC50 at F1F0-ATPase lay in the range of 5 to 16 µM. In addition, the EC50 in the test on Ramos cells is more than 16 µM.

Take `Cn1cc(C(=O)/N=C(/Nc2cc(-c3ccc(O)cc3F)n[nH]2)Nc2ccccc2Cl)c(C(F)(F)F)n1` [Compound A-3]: the IC50 on F1F0-ATPase lay in the range of 5 to 16 µM. In the test with Ramos cells, the EC50 is less than 5 µM.

In the case of `Cn1cc(C(=O)N=C(Nc2cc(-c3ccc(O)cc3F)n[nH]2)Nc2ccc(F)cc2F)c(C(F)(F)F)n1` [Compound A-4], the IC50 on F1F0-ATPase is 5 to 16 µM. For the same compound, in the test on Ramos cells (Homo sapiens), the EC50 is less than 5 µM.

With `Cn1cc(C(=O)/N=C(\Nc2cc(F)cc(Cl)c2)Nc2cc(-c3ccc(O)cc3F)n[nH]2)c(C(F)(F)F)n1` [Compound A-5], on F1F0-ATPase, the IC50 is less than 5 µM. Also, the EC50 in the test on Ramos cells is less than 5 µM.

Take `CSc1ccccc1N/C(=N\C(=O)c1cn(C)nc1C(F)(F)F)Nc1cc(-c2ccc(O)cc2F)n[nH]1` [Compound A-6]: at F1F0-ATPase, the IC50 lay within 5 to 16 µM. For the same compound, the EC50 with Ramos cells was less than 5 µM.

`CSc1cccc(N/C(=N\C(=O)c2cn(C)nc2C(F)(F)F)Nc2cc(-c3ccc(O)cc3F)n[nH]2)c1` [Compound A-7]: the IC50 at F1F0-ATPase is 5 to 16 µM. Besides, the EC50 in the test with Ramos cells was less than 5 µM.

As for `CSc1ccc(N/C(=N\C(=O)c2cn(C)nc2C(F)(F)F)Nc2cc(-c3ccc(O)cc3F)n[nH]2)cc1` [Compound A-8], on F1F0-ATPase, the IC50 fell in the range of 5 to 16 µM. Moreover, the EC50 in the test on Ramos cells was less than 5 µM.

For the compound `Cc1nc(C(=O)/N=C(/Nc2ccc(F)cc2)Nc2cccc(C(F)(F)F)c2)cs1` [Compound A-10], in the test with Ramos cells (Homo sapiens), the EC50 was more than 16 µM.

For the compound `Cc1nc(C(=O)/N=C(\Nc2cccc(C(F)(F)F)c2)Nc2ccc3[nH]ncc3c2)cs1` [Compound A-11], the EC50 in the test with Ramos cells (Homo sapiens) is more than 16 µM.

As for `Cc1nc(C(=O)/N=C(\Nc2cccc(C(F)(F)F)c2)Nc2ccc3[nH]c(=O)oc3c2)cs1` [Compound A-12], the EC50 in the test with Ramos cells (Homo sapiens) was more than 16 µM.

Regarding `Cc1nc(C(=O)/N=C(/Nc2ccc(N3CCC(O)CC3)cc2)Nc2cccc(C(F)(F)F)c2)cs1` [Compound A-13], the EC50 in the test with Ramos cells (Homo sapiens) is more than 16 µM.

Take `Cc1nc(C(=O)/N=C(/Nc2ccc(F)cc2)Nc2ccccc2C(C)(C)C)cs1` [Compound A-14]: the EC50 in the test on Ramos cells (Homo sapiens) is more than 16 µM.

Consider `Cc1nc(C(=O)/N=C(/Nc2ccc3[nH]ncc3c2)Nc2ccccc2C(C)(C)C)cs1` [Compound A-15], for which the EC50 in the test on Ramos cells (Homo sapiens) was 5 to 16 µM.

Regarding `Cc1nc(C(=O)/N=C(/Nc2ccc3[nH]c(=O)oc3c2)Nc2ccccc2C(C)(C)C)cs1` [Compound A-16], the EC50 with Ramos cells (Homo sapiens) is more than 16 µM.

In the case of `Cc1nc(C(=O)/N=C(/Nc2ccc(N3CCC(O)CC3)cc2)Nc2ccccc2C(C)(C)C)cs1` [Compound A-17], in the test with Ramos cells (Homo sapiens), the EC50 was more than 16 µM.

With `Cc1nc(C(=O)/N=C(/Nc2ccc(F)cc2)Nc2ccc(Cl)cc2)cs1` [Compound A-18], the EC50 with Ramos cells (Homo sapiens) is more than 16 µM.

On to `Cc1nc(C(=O)/N=C(\Nc2ccc(Cl)cc2)Nc2ccc3[nH]ncc3c2)cs1` [Compound A-19], for which the 50% effective concentration (EC50) in the test with Ramos cells (Homo sapiens) is more than 16 µM.

For `Cc1nc(C(=O)/N=C(\Nc2ccc(Cl)cc2)Nc2ccc3[nH]c(=O)oc3c2)cs1` [Compound A-20], the EC50 in the test with Ramos cells (Homo sapiens) was more than 16 µM.

With `Cc1nc(C(=O)/N=C(\Nc2ccc(Cl)cc2)Nc2ccc(N3CCC(O)CC3)cc2)cs1` [Compound A-21], the EC50 with Ramos cells (Homo sapiens) is more than 16 µM.

For `Cc1nc(C(=O)/N=C(/Nc2ccc(F)cc2)Nc2cccc(Cl)c2)cs1` [Compound A-22], the EC50 with Ramos cells (Homo sapiens) was more than 16 µM.

As to `Cc1nc(C(=O)/N=C(\Nc2cccc(Cl)c2)Nc2ccc3[nH]ncc3c2)cs1` [Compound A-23], in the test with Ramos cells (Homo sapiens), the EC50 was more than 16 µM.

Consider `Cc1nc(C(=O)/N=C(\Nc2cccc(Cl)c2)Nc2ccc3[nH]c(=O)oc3c2)cs1` [Compound A-24], for which the EC50 in the test on Ramos cells (Homo sapiens) is more than 16 µM.

For `Cn1cc(C(=O)/N=C(/Nc2cc(-c3cc(F)cc(F)c3)n[nH]2)NC(C)(C)C)c(C(F)(F)F)n1` [Compound A-25], the IC50 at F1F0-ATPase was less than 5 µM. Moreover, in the test with Ramos cells, the EC50 was less than 5 µM.

With `CC(C)CN/C(=N\C(=O)c1cn(C)nc1C(F)(F)F)Nc1cc(-c2cc(F)cc(F)c2)n[nH]1` [Compound A-26], the IC50 at F1F0-ATPase is less than 5 µM. Besides, the EC50 in the test with Ramos cells is less than 5 µM.

As to `Cn1cc(C(=O)/N=C(/Nc2cc(-c3cc(F)cc(F)c3)n[nH]2)NC2CCCC2)c(C(F)(F)F)n1` [Compound A-27], the IC50 at F1F0-ATPase is less than 5 µM. The EC50 in the test with Ramos cells was less than 5 µM.

With `Cn1cc(C(=O)/N=C(/Nc2cc(-c3cc(F)cc(F)c3)n[nH]2)NC2CCC2)c(C(F)(F)F)n1` [Compound A-28], the IC50 at F1F0-ATPase was less than 5 µM. For the same compound, the EC50 in the test with Ramos cells was less than 5 µM.

As to `CCOCCCN/C(=N\C(=O)c1cn(C)nc1C(F)(F)F)Nc1cc(-c2cc(F)cc(F)c2)n[nH]1` [Compound A-29], at F1F0-ATPase, the IC50 was less than 5 µM. Moreover, the EC50 in the test with Ramos cells is less than 5 µM.

In the case of `CCOCCN/C(=N\C(=O)c1cn(C)nc1C(F)(F)F)Nc1cc(-c2cc(F)cc(F)c2)n[nH]1` [Compound A-30], on F1F0-ATPase, the IC50 was less than 5 µM. The EC50 in the test on Ramos cells was less than 5 µM.

In the case of `Cn1cc(C(=O)/N=C(\NCC(C)(C)C)Nc2cc(-c3cc(F)cc(F)c3)n[nH]2)c(C(F)(F)F)n1` [Compound A-31], the IC50 at F1F0-ATPase was less than 5 µM. For the same compound, the EC50 with Ramos cells is less than 5 µM.

For the compound `COC[C@H](C)N/C(=N\C(=O)c1cn(C)nc1C(F)(F)F)Nc1cc(-c2cc(F)cc(F)c2)n[nH]1` [Compound A-32], the IC50 on F1F0-ATPase was 5 to 16 µM. For the same compound, in the test with Ramos cells, the EC50 fell in the range of 5 to 16 µM.

Take `CCC(C)N/C(=N\C(=O)c1cn(C)nc1C(F)(F)F)Nc1cc(-c2cc(F)cc(F)c2)n[nH]1` (stereo not shown) [Compound A-33]: the IC50 on F1F0-ATPase was less than 5 µM. Also, the EC50 in the test on Ramos cells was less than 5 µM.

`O=C(N=C(Nc1cc(F)cc(Cl)c1)Nc1cc(C(F)(F)F)n[nH]1)c1nccs1` [Compound A-34]: the IC50 on F1F0-ATPase was less than 5 µM. The EC50 with Ramos cells (Homo sapiens) was less than 5 µM.

`CC(C)(C)N/C(=N/C(=O)c1nccs1)Nc1cc(C(F)(F)F)n[nH]1` [Compound A-35]: the IC50 on F1F0-ATPase is less than 5 µM. The EC50 in the test on Ramos cells was 5 to 16 µM.

Consider `Cc1cc(C(=O)/N=C(/Nc2cc(F)cc(Cl)c2)Nc2cc(C(F)(F)F)n[nH]2)on1` [Compound A-36], for which the IC50 on F1F0-ATPase is less than 5 µM. Moreover, the EC50 in the test on Ramos cells was less than 5 µM.

Take `Cc1oncc1C(=O)/N=C(/NCc1ccc(F)cc1Cl)Nc1cc(-c2ccc(F)cc2)n[nH]1` [Compound A-37]: the EC50 in the test on Ramos cells lay in the range of 5 to 16 µM.

As to `CC(C)(C)N/C(=N/C(=O)c1ccno1)Nc1cc(-c2ccc(F)cc2)n[nH]1` [Compound A-38], at F1F0-ATPase, the IC50 is 5 to 16 µM. In the test on Ramos cells, the EC50 lay in the range of 5 to 16 µM.

With `Cc1ccccc1CN/C(=N/C(=O)c1ccno1)Nc1cc(-c2ccc(F)cc2)n[nH]1` [Compound A-39], on F1F0-ATPase, the IC50 was 5 to 16 µM.

With `Cc1cc(C(=O)/N=C(\Nc2cc(-c3ccc(F)cc3)n[nH]2)NC(C)(C)C)on1` [Compound A-40], the IC50 at F1F0-ATPase was 5 to 16 µM. Also, the EC50 with Ramos cells was more than 16 µM.

With `Cc1cc(C(=O)N=C(Nc2cc(-c3ccc(F)cc3)[nH]n2)NC(C)(C)C)no1` [Compound A-41], the IC50 on F1F0-ATPase was 5 to 16 µM.

With `Cc1cc(C(=O)/N=C(/NCc2ccccc2C)Nc2cc(-c3ccc(F)cc3)n[nH]2)no1` [Compound A-42], on F1F0-ATPase, the IC50 is less than 5 µM. For the same compound, the concentration giving a half-maximal response (EC50) with Ramos cells is 5 to 16 µM.

`Cn1nc(C(C)(C)C)cc1C(=O)/N=C(\Nc1cc(-c2ccc(F)cc2)n[nH]1)NC(C)(C)C` [Compound A-43]: the IC50 on F1F0-ATPase was less than 5 µM.

Consider `Cc1ccccc1CN/C(=N/C(=O)c1cc(C(C)(C)C)nn1C)Nc1cc(-c2ccc(F)cc2)n[nH]1` [Compound A-44], for which the IC50 at F1F0-ATPase was less than 5 µM. The EC50 in the test with Ramos cells is less than 5 µM.

For `COc1cccc(CN/C(=N/C(=O)c2ccn(C)n2)Nc2cc(-c3ccc(F)cc3)n[nH]2)c1` [Compound A-45], on F1F0-ATPase, the IC50 fell in the range of 5 to 16 µM. In the test with Ramos cells, the EC50 was 5 to 16 µM.
